Measured values reported in ChEMBL document CHEMBL3885861, “Open TG-GATES”.

Species: Rattus norvegicus
Assay: Open TG-GATES - Regimen: Single
Type: toxicity, organism-based, Sprague-Dawley
Design: regimen Single, gender Male, age 6 weeks
Conditions: in vivo, po, 300 mg/kg, route gavage, dose level Middle; for APTT / Bas / Eos / Fbg / Hb / Ht / Lym / MCH / MCHC / MCV / Mono / Neu / PT / Plat / RBC / Ret / WBC: tissue Blood; for KIDNEY_L / KIDNEY_R / KIDNEY_TOTAL: tissue Kidney; for LIVER: tissue Liver; for A/G / ALP / ALT / AST / BUN / CRE / Ca / Cl / DBIL / GLC / IP / K / LDH / Na / PL / RALB / TBIL / TC / TG / TP / gamma-GTP: tissue Plasma

Q: Which results are given for `O=C(N[C@H](CO)[C@H](O)c1ccc([N+](=O)[O-])cc1)C(Cl)Cl` [CHLORAMPHENICOL]?
A: TERMINAL_BW (3 h): 221.3 g; APTT (3 h): 16.6 s; Bas (3 h): 0%; Eos (3 h): 1%; Fbg (3 h): 268.4 mg/dL; Hb (3 h): 13.2 g/dL; Ht (3 h): 39%; Lym (3 h): 78.2%; MCH (3 h): 21.8 pg; MCHC (3 h): 33.9%; MCV (3 h): 64.1 fL; Mono (3 h): 3.2%; Neu (3 h): 17.4%; PT (3 h): 14.5 s; Plat (3 h): 114 x10_4/uL; RBC (3 h): 608.8 x10_4/ul; Ret (3 h): 8.3%; WBC (3 h): 71.3 x10_2/uL; KIDNEY_L (3 h): 0.9 g; KIDNEY_R (3 h): 0.9 g; KIDNEY_TOTAL (3 h): 1.9 g; LIVER (3 h): 9.8 g; A/G (3 h): 0.9; ALP (3 h): 1546.4 IU/L; ALT (3 h): 41 IU/L; AST (3 h): 76.6 IU/L; BUN (3 h): 11 mg/dL; CRE (3 h): 0.2 mg/dL; Ca (3 h): 11.5 mg/dL; Cl (3 h): 105.8 meq/L; DBIL (3 h): 0.018 mg/dL; GLC (3 h): 181.8 mg/dL; IP (3 h): 9.1 mg/dL; K (3 h): 4.1 meq/L; LDH (3 h): 66.2 IU/L; Na (3 h): 139.8 meq/L; PL (3 h): 144.2 mg/dL; RALB (3 h): 2.5 g/dL; TBIL (3 h): 0.064 mg/dL; TC (3 h): 76.6 mg/dL; TG (3 h): 66 mg/dL; TP (3 h): 5.5 g/dL; gamma-GTP (3 h): 1.2 IU/L; TERMINAL_BW (6 h): 221.3 g; APTT (6 h): 17.6 s; Bas (6 h): 0%; Eos (6 h): 0.8%; Fbg (6 h): 284 mg/dL; Hb (6 h): 13.4 g/dL; Ht (6 h): 42.8%; Lym (6 h): 79.8%; MCH (6 h): 21.7 pg; MCHC (6 h): 31.3%; MCV (6 h): 69.4 fL; Mono (6 h): 2.6%; Neu (6 h): 16.8%; PT (6 h): 15 s; Plat (6 h): 107.3 x10_4/uL; RBC (6 h): 618.2 x10_4/ul; Ret (6 h): 8.2%; WBC (6 h): 68.7 x10_2/uL; KIDNEY_L (6 h): 0.9 g; KIDNEY_R (6 h): 1 g; KIDNEY_TOTAL (6 h): 1.9 g; LIVER (6 h): 8.8 g; A/G (6 h): 0.9; ALP (6 h): 1672 IU/L; ALT (6 h): 40.8 IU/L; AST (6 h): 72.2 IU/L; BUN (6 h): 9.4 mg/dL; CRE (6 h): 0.2 mg/dL; Ca (6 h): 11.4 mg/dL; Cl (6 h): 106 meq/L; DBIL (6 h): 0.014 mg/dL; GLC (6 h): 184.4 mg/dL; IP (6 h): 9.8 mg/dL; K (6 h): 4.4 meq/L; LDH (6 h): 79 IU/L; Na (6 h): 141 meq/L; PL (6 h): 138.2 mg/dL; RALB (6 h): 2.5 g/dL; TBIL (6 h): 0.07 mg/dL; TC (6 h): 76.6 mg/dL; TG (6 h): 60 mg/dL; TP (6 h): 5.4 g/dL; gamma-GTP (6 h): 1 IU/L; TERMINAL_BW (9 h): 221.3 g; APTT (9 h): 16.4 s; Bas (9 h): 0%; Eos (9 h): 0.8%; Fbg (9 h): 273.4 mg/dL; Hb (9 h): 13.2 g/dL; Ht (9 h): 42.2%; Lym (9 h): 81.6%; MCH (9 h): 20.5 pg; MCHC (9 h): 31.4%; MCV (9 h): 65.4 fL; Mono (9 h): 1.8%; Neu (9 h): 15%; PT (9 h): 15.2 s; Plat (9 h): 109.8 x10_4/uL; RBC (9 h): 646.2 x10_4/ul; Ret (9 h): 7.4%; WBC (9 h): 55.9 x10_2/uL; KIDNEY_L (9 h): 0.9 g; KIDNEY_R (9 h): 0.9 g; KIDNEY_TOTAL (9 h): 1.8 g; LIVER (9 h): 8.3 g; A/G (9 h): 0.9; ALP (9 h): 1711.2 IU/L; ALT (9 h): 34.6 IU/L; AST (9 h): 70.2 IU/L; BUN (9 h): 10.2 mg/dL; CRE (9 h): 0.2 mg/dL; Ca (9 h): 11.1 mg/dL; Cl (9 h): 105 meq/L; DBIL (9 h): 0.014 mg/dL; GLC (9 h): 180.4 mg/dL; IP (9 h): 10.2 mg/dL; K (9 h): 4.5 meq/L; LDH (9 h): 59.4 IU/L; Na (9 h): 139.8 meq/L; PL (9 h): 122 mg/dL; RALB (9 h): 2.5 g/dL; TBIL (9 h): 0.068 mg/dL; TC (9 h): 67.8 mg/dL; TG (9 h): 36 mg/dL; TP (9 h): 5.3 g/dL; gamma-GTP (9 h): 1.2 IU/L; TERMINAL_BW (24 h): 227.9 g; APTT (24 h): 18.8 s; Bas (24 h): 0%; Eos (24 h): 0.8%; Fbg (24 h): 258.8 mg/dL; Hb (24 h): 13.7 g/dL; Ht (24 h): 42.4%; Lym (24 h): 84.4%; MCH (24 h): 21.7 pg; MCHC (24 h): 32.1%; MCV (24 h): 67.6 fL; Mono (24 h): 2.8%; Neu (24 h): 11.6%; PT (24 h): 14.8 s; Plat (24 h): 118.7 x10_4/uL; RBC (24 h): 628.2 x10_4/ul; Ret (24 h): 7.8%; WBC (24 h): 66 x10_2/uL; KIDNEY_L (24 h): 1 g; KIDNEY_R (24 h): 1 g; KIDNEY_TOTAL (24 h): 2 g; LIVER (24 h): 9.4 g; A/G (24 h): 0.9; ALP (24 h): 1891.8 IU/L; ALT (24 h): 48.2 IU/L; AST (24 h): 76.6 IU/L; BUN (24 h): 14.8 mg/dL; CRE (24 h): 0.2 mg/dL; Ca (24 h): 11.5 mg/dL; Cl (24 h): 105.4 meq/L; DBIL (24 h): 0.02 mg/dL; GLC (24 h): 190.4 mg/dL; IP (24 h): 8.8 mg/dL; K (24 h): 4.5 meq/L; LDH (24 h): 65 IU/L; Na (24 h): 141.6 meq/L; PL (24 h): 157.6 mg/dL; RALB (24 h): 2.5 g/dL; TBIL (24 h): 0.062 mg/dL; TC (24 h): 86 mg/dL; TG (24 h): 81 mg/dL; TP (24 h): 5.5 g/dL; gamma-GTP (24 h): 1 IU/L
